The results in this text go back to patent US20220370553A1, “PREBIOTIC-INDUCED ANTI-TUMOR IMMUNITY” (Sanford Burnham Prebys Medical Discovery Institute, priority 2019, published 2022).

Assay [1] deals with N-Ras mutant melanoma tumor cells (MaNRAS1). Kind of assay: Growth of N-Ras mutant melanoma tumors with prebiotics with or without MEKi. The assay is classed as in vivo, C57BL/6 mice.
Description: FIG. 7A C57BL/6 mice were injected (s.c.) with NRAS^Q61K mouse melanoma cells (1×10^6) (n=10). The mice were administered with either a control diet alone, or one supplemented with mucin (3%) in drinking water or inulin (15%) in chow starting 14 days prior to tumor inoculation. When tumors reached a volume of 10-20 mm^2, mice were treated with MEKi (PD325901) administered by gavage (10 mg/kg, daily), alone or in combination with inulin or mucin, as indicated. Tumor volume was assessed every 4 days. […] Data are representative of two independent experiments. Graphs show the mean±s.e.m. *P<0.05, **P<0.005, ***P<0.001, ****P<0.0001 by two-way ANOVA with Tukey's correction (A) or one-way ANOVA with Tukey's correction (B-D).
Animals and tumor models. […] Male 6-8-week-old mice were used for all experiments. […] All mice were fed an autoclaved chow diet ad libitum (LabDiet 5K67, Purina Foods). […] Mouse selection for experiments was not formally randomized or blinded. For tumor growth experiments, mice were injected subcutaneously (s.c.) with 1×10^6 tumor cells. Tumor size was measured twice a week for calculation of tumor volume. Tumors were weighed at the time of excision.
Mucin and inulin treatment. For mucin treatment, C57BL/6 mice were subjected to control or water supplemented with 3% mucin (Lee Biosolutions) prior to (14 days) and during tumor inoculation. Water was changed every other day. For inulin treatment, mice were received a diet (TD. 94048, AIN-93M, Purified Diet, ENVIGO) enriched with long-chain inulin by substituting all of sucrose and 5% of corn starch in the control diet or a modified diet (TD. 160256, Modified AIN-93M, Diet w 15% inulin, ENVIGO) prior to (14 days) and during tumor inoculation. Diets were changed 2 times a week.
Experiments were conducted to determine whether prebiotics impacted the effectiveness of MEK inhibitor (MEKi) treatment on tumor growth control and treatment resistance.
The subject of a further assay is CD8+ T cells. In words: qRT-PCR of cytokine and chemokine mRNAs in CD8+ T cells in vitro. The class given is cell-based, mice. Particulars: 0.05 or 0.5 mg/ml in vitro. The text has this: Data are representative of two independent experiments. Graphs show the mean±s.e.m. *P<0.05, **P<0.005, ***P<0.001, ****P<0.0001 one-way ANOVA with Tukey's correction.
RNA extraction and qRT-PCR analyses. Total RNA was extracted from tumor samples individually using the RNeasy Fibrous Tissue Midi kit (QIAGEN) or cells treated as indicated using High Capacity Reverse Transcriptase kits (Invitrogen) according to the manufacturer's protocol. Purity and concentration of extracted RNA were checked and quantified by reading at 260 and 280 nm in a NanoDrop spectrophotometer (Thermo Fisher). The qRT-PCR analyses were performed using Syber Green RT-PCR kits (Invitrogen) on a Bio-Rad CFX Connect Real-Time system. Expression levels normalized to 18S or Tubb5 controls.

Assay [2] has as its system MC-38 mouse colorectal cancer cells. In words: Flow cytometry of tumor-infiltrating immune cells in MC-38 tumors. The class given is in vivo, C57BL/6 mice. As for the experimental part:
(§1) Tumor digestion. Tumors were excised, minced, and digested with 1 mg/ml collagenase D (Roche) and 100 μg/ml DNase I (Sigma) at 37° C. for 1 h. Digests were then passed through a 70-μm cell strainer to generate a single-cell suspension. The cells were washed twice with PBS containing 2 mM EDTA, and then stained for flow cytometry.
(§2) Flow cytometry. Tumor-derived single-cell suspensions were washed twice with FACS staining buffer, fixed for 15 min with 1% formaldehyde in PBS, washed twice, and resuspended in FACS staining buffer. For intracellular cytokine staining, cells were resuspended in complete RPMI-1640 (containing 10 mM HEPES, 1% non-essential amino acids and L-glutamine, 1 mM sodium pyruvate, 10% heat-inactivated fetal bovine serum (FBS), and antibiotics) supplemented with 50 U/mL IL-2 (NCI), […] brefeldin A (BFA, Sigma), and incubated with phorbol myristate acetate (10 ng/ml) and ionomycin (0.5 μg/ml) at 37° C. The cells were then fixed and permeabilized using a Cytofix/Cytoperm Kit (BD Biosciences) before staining. Antibodies to the following proteins were used: CD45.2 (104), CD8a (53-6.7), CD4 (GK1.5), CD44 (IM7), TNF-α (MP6-XT22), IFN-γ (XMG1.2), CD11c (N418), CD11b (M1/70), MHC class II (M5/114.15.2), PDCA (129c1), and B220 (RA3-6B2) from BioLegend, and antibodies to IL-2 (JES6-5H4) and MHC class I (AF6-88.5.5.3) from eBioscience. All data were collected on an LSRFortessa (BD Biosciences) and analyzed using FlowJo Software (Tree Star).
(§3) MC-38 mouse colorectal cancer cells (1×10^6) were inoculated, and diets were continued after inoculation.

The test system is the same in assay [3]. Kind of assay: Growth of MC-38 colorectal cancer tumors in prebiotic-fed mice. The assay is classed as in vivo, C57BL/6 mice. The following applies: 3% mucin in drinking water or 15% inulin diet from two weeks prior to inoculation.
Description: as §3

In another assay the test system is Bifidobacterium spp. In words: Anaerobic fecal cultures with 1% prebiotic, 16S rDNA quantification. The class given is cell-based, human. The following applies: in two of these cultures. As for the experimental part:
(§4) Fecal samples derived from 12 healthy human subjects were cultivated in the presence or absence of 1% prebiotic. 16S rDNA sequences corresponding to Bifidobacterium, Bacteroides and Akkermansia muciniphila were quantified. Data are representative of three independent experiments. Graphs show the mean±s.e.m. *P<0.05, **P<0.005, ***P<0.001, ****P<0.0001 by one-way ANOVA with Tukey's correction.
(§5) Anaerobic fecal cultures. […] Anaerobic cultures (9% H2, 81% N2) were grown statically for 3-4 days at 37° C. and grown to approximate saturation.
(§6) Chemically-defined medium (CDM). CDM contains 50 mM HEPES, 2.2 mM KH2PO4, 10 mM Na2HPO4, 60 mM NaHCO3, 4 mM of each amino acid, except leucine (15 mM), 10 mL ATCC, Trace Mineral Supplement. CDM contained nucleoside bases (100 mg/L), inosine, xanthine, adenine, guanine, cytosine, thymidine and uracil (400 mg/L). CDM contained choline (100 mg/L), ascorbic acid (500 mg/L), lipoic acid (2 mg/L), hemin (1.2 mg/L) and myo-inositol (400 mg/L). Resazurin (1 mg/L) was added to visually monitor dissolved oxygen. The pH of the media was adjusted to 7.4.
(§7) Fecal samples derived from 12 healthy, vegetarian human subjects were cultivated in a chemically-defined medium the presence or absence of 1% prebiotic. Anaerobic cultures (9% H2, 81% N2) were grown statically for 3-4 days at 37° C. and grown to approximate saturation.

In assay [4] the test system is Yumm1.5 tumors. In words: Flow cytometry of tumor-infiltrating immune cells in Yumm1.5 tumors. Particulars: 20 days following tumor inoculation. The class given is in vivo, C57BL/6 mice.
Description: (§8) FIG. 2B, Quantification of tumor-infiltrating effector (CD44hi) CD4+, CD8+ and CD45+ T cells from mice treated as in FIG. 2A (n=10). FIG. 2C, Quantification of tumor-infiltrating, IFN-g-producing CD4+ T cells from mice treated as in FIG. 2A (n=10). FIG. 2D, Quantification of tumor-infiltrating total DCs and subsets in mice treated as in FIG. 2A (n=10). FIG. 2E, MFI of MHC class I and MHC class II on DCs from the tumors of mice treated as in FIG. 2A (n=10). […] Graphs show the mean s.e.m. *P<0.05, **P<0.005, ***P<0.001,****P<0.0001 by two-way ANOVA with Tukey's correction (A) and by one-way ANOVA with Tukey's correction (B-E).
as §1, §2
A general note: A flow cytometer gives signals particle by particle.

Assay [5] has as its system Yumm1.5 tumors. Kind of assay: Growth of Yumm1.5 melanoma tumors in prebiotic-fed mice. The class given is in vivo, C57BL/6 mice. Particulars: mucin 3% in drinking water or inulin 15% w/w chow from 2 weeks prior to inoculation of 1×10^6 Yumm1.5 cells.
Description: as §8

The next assay relates to Bacteroides spp. In words: Anaerobic fecal cultures with 1% prebiotic, 16S rDNA quantification. The assay is classed as cell-based. The following applies: fecal cultures of 12 healthy human subjects, 3-4 days at 37° C. As for the experimental part:
as §4, §5, §6, §7

The subject of assay [6] is intestinal epithelial cells. Kind of assay: qRT-PCR of inflammatory mediators in intestinal epithelial cells in vivo. Also noted: species or system C57BL/6 mice. Particulars: inulin 15% in chow, naïve mice, 2 weeks. In general terms: Quantitative PCR measures a nucleic acid by following its amplification.
Description: FIG. 15 illustrates effects of mucin and inulin on expression of inflammatory mediators by intestinal epithelial cells in vivo. qRT-PCR data are shown for mRNA levels of the indicated inflammatory mediators in intestinal epithelial cells from mucin or inulin-treated mice (n=4). Data are representative of two independent experiments. Graphs show the mean s.e.m. *P<0.05, **P<0.005, one-way ANOVA with Tukey's correction.
Isolation of intestinal epithelial cells. A 10 cm section of mouse small intestine was opened longitudinally, minced, washed in 150 mM NaCl containing 1 mM DTT, and then resuspended in dissociation buffer (130 mM NaCl, 10 mM EDTA, 10 mM Hepes [pH 7.4], 10% FCS, and 1 mM DTT). The sections were incubated at 37° C. for 30 min with vigorous shaking to release the epithelial cells from the lamina propria. The epithelial cell suspension was then carefully aspirated, centrifuged, and washed in ice-cold PBS.
The effect of mucin and inulin on intestinal epithelial cells was evaluated in vivo. To this end, mucin (3% in drinking water) or inulin (15% in chow) were administered to naïve C57BL/6 mice for 2 weeks. Intestinal epithelial cells were isolated from small intestine and were assessed for the level of select cytokines and chemokines that are implicated in the activation of the immune response and anti-tumor immunity.
For a further assay, the system named is gut microbiota. The assay is classed as in vivo, C57BL/6 mice. As for the experimental part: Bacterial DNA extraction and 16S library preparation. […] Mouse fecal pellets were frozen on dry ice, and stored at −80° C. Bacterial DNA was extracted using the QIAmp Fast DNA Stool Mini Kit (Qiagen). To ensure efficient cell lysis, a 5-min bead-beating step using a Mini-Beadbeater-16 was included (Biospec Products, OK, USA). Library preparation for the Illumina MiSeq platform was performed by amplification of the V3-V4 region of the bacterial 16S ribosomal DNA gene using
C. Adapter and barcode sequences for dual indices were used as described by Illumina. PCR clean up steps were performed with QIAquick 96-PCR Clean up kit (Qiagen, Germany), and library quantification was performed using a KAPA Library Quantification Kit for Illumina platforms (KAPA Biosystems, MA, USA). An Experion Automated Gel Electrophoresis System (Bio-Rad, CA, USA) was used to measure the DNA concentration and purity of the pooled libraries. The 16S libraries were sequenced at Novagene (Beijing, China) and the SBP sequencing Core.
16S sequencing data processing. The original FASTQ files from Illumina 250 basepair paired-end sequencing of the samples were processed using a novel 16S amplicon sequencing pipeline HiMap (http://github.com/taolonglab/himap; BioRxiv 565572). The output of HiMap is Operational Strain Unit (OSU) which contains one or more bacterial strains that best match the 16S sequence and cannot be further distinguished. The percentage similarity between the 16S sequence and the aligned region of 16S rRNA genes of the strains in the OSU is indicated. OSUs mapped to the same strains are grouped together (adding read counts) if percentage similarities are within 3%. Read counts are converted into relative abundance as described in HiMap. Log 10-transformed relative abundances were used for comparisons between samples under different experimental conditions.

As for `O=C(NOC[C@H](O)CO)c1ccc(F)c(F)c1Nc1ccc(I)cc1F` [MEKi, PD325901, reference compound], in [1] (MEKi (PD325901) 10 mg/kg daily by gavage, alone or with prebiotic), the “N-Ras mutant tumor growth” value is reported as “effectively controlled tumor growth”.
inulin: in the assay with CD8+ T cells, the “expression of multiple pro-inflammatory mediators in CD8+ T cells” value is recorded as “increased expression”. Further, in assay [2], the “CD4+ or CD8+ T cells, CD45+ cells, cytokine production, DCs and DC subsets in tumors” value was “No differences”; the “anti-tumor immune responses, MHC class II and I expression on DCs” value was “enhanced”. In addition, in [3], the “growth of colon cancer MC-38 tumors” value is reported as “attenuated”. Moreover, the Bifidobacterium spp. result in the assay on Bifidobacterium spp. is on record as “strong increase”. Further, in the assay with Yumm1.5 tumors [4], the “MHC class I and MHC class II on tumor-resident DCs” value was “higher levels”; the “dendritic cell subsets including pDCs and CD8a+ conventional DCs in tumors” value is given as “increased”. Besides, the “effector (CD44hi) CD4+ and CD8+ T cells, and CD45+ cells in tumors” value in the assay on Yumm1.5 tumors [4] (compared to control mice) is given as “enrichment”. For the same molecule, the “control of N-Ras mutant tumors” value in assay [1] (in the absence of MEKi, mucin 3% in water or inulin 15% in chow) is given as “modestly controlled”. The “intrinsic resistance of MaN-Ras melanoma cells to MEKi” value in [1] (inulin-fed mice treated with MEKi) is given as “delayed”. Also, the melanoma tumor growth result in the assay with Yumm1.5 tumors [5] is “attenuated”. Besides, the “relative abundance of Bacteroides spp.” value in the assay with Bacteroides spp. was “increased”. Also, the “levels of NOD2, IL-6 and CXCL2 mRNA in intestinal epithelial cells” value in assay [6] is reported as “increased”. Besides, in the assay on gut microbiota (in the absence of MEKi), the “phylotype group related to Parasutterella excrementihominis” value is “notable increase” and the “taxa increased in relative abundance” value is listed as “primarily increased the relative abundance of taxa mapped in or near Clostridium cluster XIVa”. Besides, in the assay on gut microbiota (inulin+MEKi treated mice compared to inulin alone), the Akkermansia muciniphila entry is given as “robustly enriched”.
